# Data: US6399583B1, “Hybrid anthracyclines from genetically engineered streptomyces galilaeus strains, process for production and uses thereof” (Galilaeus Oy, priority 1998, dated 2002)
# Read-outs that look alike come from different tables or passages of the source.
# How the values were obtained:
# [1] = system: B16-F0 melanoma; test: Cytotoxicity assay, ATP detection, B16-F0; format: cell-based, mouse; details: B16-F0 cells in vitro, read-out: ED50 B16-F0
# Protocol: (§1) The cytotoxicity tests were performed in 96-well microtiter plates (sterile white plates with clear bottom, Corning Costar Corporation, Cambridge, Mass., USA). The anthracyclines were pipetted into the plates in 10 μl of ethanol, pure ethanol was used for control plates. Daunorubicin and aclarubicin were used as positive controls. When the ethanol had evaporated, the cells were seeded into the plates in 100 μl of appropriate medium. The number of cells seeded per well was 2500 with MES-SA, 3000 with MES-SA/D×5, 3000 with LL/2, 2000 with B16-F0 and B16-F1, 2000 with KLN-205 and 8000 with MLTC-1. The ATP content of the cells was measured after incubating the cells for three days at 37° C. with 5% CO2.
# (§2) The growth medium was removed by turning the plates over, and 200 μl of ATP extraction reagent, Somalyze, were added to the wells. The plates were then incubated for 30 minutes at room temperature. The ATP measurement was performed with Luminoskan luminometer (Labsystems Oy, Helsinki, Finland) at 22° C. 20 μl of ATP monitoring reagent containing luciferin and luciferase was dispensed, and an integral measurement of 10 s with 2 s lag time was performed for each well. All reagents used were supplied by Bio-Orbit Oy, Turku, Finland.
# (§3) The direct luminometer output (in relative light units, RLUS) was used to calculate the cytotoxic effect. This light signal is directly proportional to the amount of […] in a wide range (determined with Bio-Orbit ATP standard, data not shown). On the other hand, the amount of ATP is directly proportional to the amount of living cells (Kangas et al., 1984). The results are expressed as percentages of the control value of untreated cells. An IC50 value (the drug concentration resulting to an ATP signal of 50% of the untreated control signal) was graphically estimated from the % of control vs. drug concentration plot.
# (§4) H075-4a was also tested with several mouse cell lines in vitro (all were purchased from ATCC, Rockville, Md., USA): Lewis lung carcinoma (LL/2) (CRL-1642), B16-F0 melanoma (CRL-6322), B16-F1 melanoma (CRL-6323), KLN-205 lung squamous cell carcinoma (CRL-1453) and MLTC-1 leydig cell tumor (CRL-2065) using daunomycin, aclarubicin and H075-1a (MA 144U1) as references.
# (§5) All cells grew as monolayers and were cultured at 37° C. with 5% CO2 according to ATCC standard instructions for each cell line: LL/2 in Dulbecco's modified Eagle's medium with 4.5 g/l glucose and 10% FCS, B16-F0 and B16-F1 in MEM (Eagle) in Earle's BSS with non-essential amino acids and 10% FCS, KLN-205 in MEM (Eagle) in Earle's BSS with non-essential amino acids and 10% FCS, MLTC-1 in RPMI 1640 with 25 mM HEPES and 10% FBS. All media were purchased from Gibco BRL, the serum was Gibco BRL Foetal Bovine Serum. […]
# [2] = system: MLTC-1 leydig cell tumor; test: Cytotoxicity assay, ATP detection, MLTC-1; format: cell-based, mouse; details: MLTC-1 cells in vitro, read-out: ED50 MLTC-1
# Protocol: as §1, §2, §3, §4, §5
# [3] = system: P388 leukemia; test: Cytotoxic activity in vivo: P388 leukemia model; parameters: species or system mice; details: 10^6 P388 cells i.p. day 0
# Excerpt: P388 leukemia was maintained by serial intraperitoneal (i.p.) transplantations in DBA/2JBom female mice purchased from M & B A/S, Ry, Denmark. The animals were maintained at the facilities of Central Animal Laboratory, University of Turku. The management of the animal unit is based on and followed the guidelines: “European Convention for the protection of Vertebrate Animals used for Experimental and other Scientific Purposes, European Treaty Series No. 123 (EU No. 609/86), Official Journal of European Communities No. L 358, Strasbourg Nov. 24, 1986”, and “The Statute No. 1360/90 of the Finnish Law, Helsinki Dec. 21, 1990: Asetus kokeellisiin ja muihin tieteellisiin tarkoituksiin käytettävien selkärankaisten eläinten suojelemiseksi tehdyn eurooppalaisen yleissopimuksen voimaansaattamisesta. Suomen s{umlaut over (aa)}doskokoelma.”
# The in vivo tests were started by injecting 10^6 P388 cells suspended in Dulbecco's phosphate buffered saline i.p. in mice on day 0. Groups of 3 mice were used. The drugs were administered i.p. on day 1 on the basis of individual body weight. The control group received vehicle (10% ethanol in Dulbecco's phosphate buffered saline).
# [4] = system: L1210 mouse lymphocytic leukemia cells; test: Flow cytometry (mode of action), cell cycle phases; format: cell-based; details: for G1 (%) / G2 (%) / S + M (%) / Cells (1000/ml): L1210 cells, 24 h incubation; for G1 (%): percentage of cells in phase G1; for G2 (%): percentage of cells in phase G2; for S + M (%): percentage of cells in phases S + M; for Cells (1000/ml): starting cell number 46000 cells/ml
# Protocol: L1210 mouse lymphocytic leukemia cells growing in suspension culture were maintained at exponential growth in Dulbecco's modified Eagle's medium with 4.5 g/l glucose and 10% FBS, at 37° C. with 5% CO2. The experiments were started by adding the ethanol-dissolved anthracyclines, in amounts yielding to the appropriate final concentrations, to 25 cm^2 cell culture flasks. After the ethanol had evaporated, 5 ml of an approximately 50 000 cells per ml suspension was added to the flasks. Flow cytometric analysis was made of the original cell suspension and after one, two and three days incubation with or without the drugs.
# Cells were prepared for flow cytometric DNA analysis according to the method of Vindelov et al. (1985). The analysis was performed with an Epics XL flow cytometer (Coulter Corporation, Miami, Fla.). Samples were illuminated with a […] air-cooled argon ion laser (488 nm) and the fluorescence of propidium iodide was detected through 620-nm band pass filter. The number of cells in each sample was separately counted by adding an internal calibrator (50 μl of a solution containing 1×10^6 Fluoresbrite beads/ml) to 50 μl of cell suspension.
# Based on the flow cytometric studies, the cell cycle phases for the cells studied could be detected. Phase G1 is the stage for RNA and protein synthesis, but not for replication. Transition from phase G1 to phase S means the initiation of replication, and the phase will last until all of the DNA has been replicated. The period from phase S up to mitosis (M) is phase G2.
# [5] = system: B16-F1 melanoma; test: Cytotoxicity assay, ATP detection, B16-F1; format: cell-based, mouse; details: B16-F1 cells in vitro, read-out: ED50 B16-F1
# Protocol: as §1, §2, §3, §4, §5
# [6] = system: KLN-205 lung squamous cell carcinoma; test: Cytotoxicity assay, ATP detection, KLN-205; format: cell-based, mouse; details: KLN-205 cells in vitro, read-out: ED50 KLN-205
# Protocol: as §1, §2, §3, §4, §5
SMILES,Median survival days (range) ([3]; 4 mg/kg i.p. on day 1),G1 (%) ([4]; concentration 1 × 10^−8M),G2 (%) ([4]; concentration 1 × 10^−8M),S + M (%) ([4]; concentration 1 × 10^−8M),Cells (1000/ml) ([4]; concentration 1 × 10^−8M),G1 (%) ([4]; concentration 3.3 × 10^−8M),G2 (%) ([4]; concentration 3.3 × 10^−8M),S + M (%) ([4]; concentration 3.3 × 10^−8M),Cells (1000/ml) ([4]; concentration 3.3 × 10^−8M),also measured
CCC1(O)CC(OC2CC(N(C)C)C(OC3CC(O)C(OC4CC(O)C(O)C(C)O4)C(C)O3)C(C)O2)c2c(O)c3c(c(O)c2C1C(=O)OC)C(=O)c1cccc(O)c1C3=O (stereo not drawn) [Compound H075-4a],15 (13-15) days,40,12,48,88 1000/ml,45,19,36,67 1000/ml,EC50 [1]: 2 nM; EC50 [2]: 60 nM; Median survival days (range) ([3]; 1 mg/kg i.p. on day 1): 14 (13-15) days; Median survival days (range) ([3]; 2 mg/kg i.p. on day 1): 14 (13-16) days; Median survival days (range) ([3]; 6 mg/kg i.p. on day 1): 15 (15-16) days; cell cycle phase in which cells are arrested ([4]; flow cytometric DNA analysis): arrested the cells in phase G1; EC50 [5]: 2 nM; EC50 [6]: 5 nM
COc1cccc2c1C(=O)c1c(O)c3c(c(O)c1C2=O)C[C@@](O)(C(C)=O)C[C@@H]3O[C@H]1C[C@H](N)[C@H](O)[C@H](C)O1 [Daunorubicin],14 (14-16) days,11,38,51,66 1000/ml,6,66,27,23 1000/ml,"EC50 ([1]; Mus musculus, B16F0): 20 nM; EC50 ([2]; Mus musculus, Leydig): 900 nM; EC50 ([5]; Mus musculus): 8 nM; EC50 ([6]; Mus musculus): 90 nM"
